# How the values were obtained:
# Assay type in all cases: cell-based
# [1] = test system: J-Lat A1 cells, U1 cells, primary CD4+ T cells; assay: Cell proliferation / S-phase progression by BrdU ELISA; conditions: U1 cells or primary CD4+ T cells, 12 nM PEP005, 24 hours
# Experimental: FIG. 7: PEP005 causes minimal cytotoxicity and T cell proliferation. To evaluate the impact of PEP005 on the cell viability, U1 cells (A), J-Lat A1 cells (B) and CD4+ T cells (C) were treated with 12 nM of PEP005 for 24 hours, the cell viability was examined with the MTT assay and the S-phase cell cycle progression was evaluated after BrdU incorporation using BrdU ELISA. 25-50 μM Etoposide or 100-150 μM Doxorubicin (Doxo) served as positive controls for MTT and BrdU assays respectively. Statistical analysis was performed in comparison with controls. **, p<0.01.
# Cells were placed in 96-well plates and incubated for 24 or 72 h hrs with compounds. Cell viability was measured using MTT assay (Roche Laboratories), and cell proliferation/S-phase progression was determined by using BrdU ELISA kit (Cell signaling, #1863).
# [2] = test system: latent HIV in J-Lat A1 cells; assay: HIV latency reactivation in J-Lat A1 cells (GFP expression by flow cytometry)
# Experimental: FIG. 1: PEP005 induces reactivation of HIV latency in vitro. J-Lat A1 cells were exposed to different concentrations of PEP005 and virus reactivation was measured by GFP expression using flow cytometry. Cell viability was determined by Live/Dead dye staining. (A) Chemical Structure of PEP005. […] (D) PEP005 potently reactivates latent HIV in cell lines compared with other LRAs. J-Lat A1 cells were treated with 10 nM PEP005, 500 nM SAHA, 2 μM JQ1, 2 μM GSK343, 10 ng/ml TNF, 2 μM Prostratin, or 5 ng/ml PMA for 24 hours and the percentage of GFP expression was evaluated using flow cytometry. *, p<0.05; **, p<0.01.
# FIG. 2: PEP005 synergizes with other latency reversing agents in reactivating latent HIV. (A) J-Lat A1 cells were treated with 5 ng/ml PMA, 6 nM PEP005, 500 nM SAHA, 2 μM JQ1, 2 μM GSK343, or 10 μM Prostratin alone or in combination with 6 nM PEP005 for 24 hours and the percentage of GFP expressing cells was determined using flow cytometry. **, p<0.01; *, p<0.05 compared with control treatment; **, p<0.01; *, p<0.05 compared with PEP005 treatment alone. (B) The U1 cells were treated with 5 ng/ml PMA, 6 nM PEP005, 500 nM SAHA, 2 μM JQ1, or 2 μM GSK343, alone or in combination with 6 nM PEP005 for 24 hours and the HIV transcription was evaluated using RT-qPCR. Numbers indicate fold-increase over the control. **, p<0.01; *, p<0.05 compared with control treatment; **, p<0.01; *, p<0.05 compared with PEP005 treatment alone. […] The Bliss independence model was utilized for calculation of synergy for LRA combinations. Dotted horizontal line signifies pure additive effect (Δfaxy=0). Synergy is defined as Δfaxy>0 while Δfaxy<0 indicates antagonism. Statistical significance was determined using a one tailed ratio t-test comparing predicted and observed drug combination effects. *p<0.05; **p<0.01.
# J-Lat A1 cells (harboring a single copy of latent HIV LTR and one copy of green fluorescent protein gene under the HIV LTR control) or U1 cells (harboring two latent HIV genomes with defective Tat gene) were cultured in RPMI1640 medium with 10% fetal bovine serum (FBS) and 1% Pen/strep in a 37° C. incubator containing 5% CO2 [24,31]. Both of the cell lines were obtained from NIH AIDS Reagent Program. For reactivation of HIV LTR, cells were treated with PMA (Sigma), JQ1 (Biovision), Prostatin (Sigma), SAHA (Santa Cruz), TNF-α (BD), GSK343 (Sigma), or PEP005 (Tocris Bioscience) for 24 h. HIV reactivation was quantified by GFP expression using flow cytometry and the data were analyzed using FlowJo Software for J-Lat A1 cells, or by quantitative RT-PCR (RT-qPCR) for J-Lat A1 and U1 cells. Cell viability was evaluated using Live/Dead dye (Life Technologies) by flow cytometry. So far, there is not a single in vitro cell culture model available that captures all the features of HIV latency. However, PKC agonists seem to reactivate latent HIV in all the cell culture models of viral latency. Similar to other J-Lat cell lines, the J-Lat A1 clone has been widely used by researchers for HIV latency studies. The T-cell-derived J-Lat A1 cells harbor one copy of a construct containing a Tat and a green fluorescent protein (GFP) gene framed by the 5′ and 3′ HIV LTR [32]. The J-Lat A1 cells also contain the TAR loop located within the R region of HIV LTR (nt +1 to +60), which provides an opportunity for Tat-TAR interactions for the modulation of transcription and transcriptional elongation. […]
# latent HIV in U1 cells = assay: HIV transcription in U1 cells (RT-qPCR); conditions: 6 nM PEP005, 2 μM JQ1, 24 h
# Experimental: FIG. 2: PEP005 synergizes with other latency reversing agents in reactivating latent HIV. (A) J-Lat A1 cells were treated with 5 ng/ml PMA, 6 nM PEP005, 500 nM SAHA, 2 μM JQ1, 2 μM GSK343, or 10 μM Prostratin alone or in combination with 6 nM PEP005 for 24 hours and the percentage of GFP expressing cells was determined using flow cytometry. **, p<0.01; *, p<0.05 compared with control treatment; **, p<0.01; *, p<0.05 compared with PEP005 treatment alone. (B) The U1 cells were treated with 5 ng/ml PMA, 6 nM PEP005, 500 nM SAHA, 2 μM JQ1, or 2 μM GSK343, alone or in combination with 6 nM PEP005 for 24 hours and the HIV transcription was evaluated using RT-qPCR. […] Statistical significance was determined using a one tailed ratio t-test comparing predicted and observed drug combination effects. *p<0.05; **p<0.01.
# J-Lat A1 cells (harboring a single copy of latent HIV LTR and one copy of green fluorescent protein gene under the HIV LTR control) or U1 cells (harboring two latent HIV genomes with defective Tat gene) were cultured in RPMI1640 medium with 10% fetal bovine serum (FBS) and 1% Pen/strep in a 37° C. incubator containing 5% CO2 [24,31]. […] HIV reactivation was quantified by GFP expression using flow cytometry and the data were analyzed using FlowJo Software for J-Lat A1 cells, or by quantitative RT-PCR (RT-qPCR) for J-Lat A1 and U1 cells. […]
smiles,measurement,setting,value
"C/C=C(/C)C(=O)O[C@H]1C(C)=C[C@]23C(=O)[C@@H](C=C(CO)[C@@H](O)[C@]12O)[C@H]1[C@@H](C[C@H]3C)C1(C)C [PEP005, (1aR,2S,5R,5aS,6S,8aS,9R,10aR)-5,5a-Dihydroxy-4-(hydroxymethyl)-1,1,7,9-tetramethyl-11-oxo-1a,2,5,5a,6,9,10,10a-octahydro-1H-2,8a-methanocyclopenta[a]cyclpropa[e][10]annulen-6-yl (2Z)-2-methylbut-2-enoate]",proportion of cells in S-phase (BrdU),[1],did not induce any significant increase
same,concentration at which effect on HIV expression was evident,[2],2 nM
same,HIV reactivation compared to other compounds known to reactivate HIV,"[2]; 10 nM PEP005 vs 500 nM SAHA, 2 μM JQ1, 2 μM GSK343, 2 μM Prostratin, 5 ng/ml PMA, 24 h",more potent than SAHA
same,increase in the reactivation of HIV latency compared to untreated controls,[2]; 20 nM PEP005,7 fold
same,"induction of HIV expression, agent alone","[2]; GFP, 24 h, PEP005 2-40 nM, GSK343 2 μM",dose-dependent manner
same,increase in latent HIV reactivation / HIV transcription compared to controls,latent HIV in U1 cells,about 25 fold

# From patent US10376486B2, “Compositions and methods for reactivating latent viral infections” (priority 2014, dated 2019)
